Test results reported in paper PMC5717343 (Open Biology, 2017).

System: PrP^Sc in iPK1/2 cells
Assay type: cell-based

dextran sulfate
concentration of apparent curing: greater than 1 × 10^−6 M
effect on PrP^Sc levels / prion infection (curing): dose-dependent decrease in PrP^Sc
IC50 (read-out: apparent IC50, reduction of PrP^Sc): ~500 nM
